Values quoted from earlier work, collected in US6486129B1, “Antithrombotic compounds” (Akzo Nobel N.V., priority 1998, dated 2002).

Target: thrombin (Homo sapiens, UniProt P00734)
Settings: background description of prior art

Nα-(2-naphthylsulfonyl)-glycyl-4-amidinophenylaianinpiperidide [NAPAP]
thrombin specificity: low thrombin specificity
